ChEMBL document CHEMBL3739270 (Medchemcomm, 2015)

Key:
Format in all cases: cell-based
CHO-K1 = assay: Selectivity ratio, ratio of Ki for human melatonin receptor MT2 to Ki for human melatonin receptor MT1 expressed in CHO-K1 cells
[1] = biological target: Melatonin receptor type 1A (Homo sapiens, UniProt P48039); assay: Displacement of 2-[125I]-iodomelatonin from human melatonin receptor MT1 expressed in CHO cells after 1 hr by gamma counting analysis
[2] = biological target: T1, Melatonin receptor type 1B (Homo sapiens, UniProt P49286); assay: Displacement of 2-[125I]-iodomelatonin from human melatonin receptor MT2 expressed in CHO cells after 1 hr by gamma counting analysis
T1 sequence (P49286 whole entry): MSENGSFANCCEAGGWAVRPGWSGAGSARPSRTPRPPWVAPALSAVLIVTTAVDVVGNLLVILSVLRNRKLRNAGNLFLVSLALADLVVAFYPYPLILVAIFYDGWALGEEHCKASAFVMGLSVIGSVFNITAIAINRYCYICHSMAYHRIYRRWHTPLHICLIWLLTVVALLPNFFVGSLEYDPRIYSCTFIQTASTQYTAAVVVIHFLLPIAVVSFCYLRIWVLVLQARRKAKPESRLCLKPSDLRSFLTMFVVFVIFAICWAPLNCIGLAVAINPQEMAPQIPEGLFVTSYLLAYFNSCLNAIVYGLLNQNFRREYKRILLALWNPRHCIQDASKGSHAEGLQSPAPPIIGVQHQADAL

CHO = assay: Selectivity ratio, ratio of Ki for human melatonin receptor MT2 to Ki for human melatonin receptor MT1 expressed in CHO cells
HEK293 = assay: Selectivity ratio, ratio of Ki for human melatonin receptor MT2 to Ki for human melatonin receptor MT1 expressed in HEK293 cells

Chain of Melatonin receptor type 1A (P48039 whole entry): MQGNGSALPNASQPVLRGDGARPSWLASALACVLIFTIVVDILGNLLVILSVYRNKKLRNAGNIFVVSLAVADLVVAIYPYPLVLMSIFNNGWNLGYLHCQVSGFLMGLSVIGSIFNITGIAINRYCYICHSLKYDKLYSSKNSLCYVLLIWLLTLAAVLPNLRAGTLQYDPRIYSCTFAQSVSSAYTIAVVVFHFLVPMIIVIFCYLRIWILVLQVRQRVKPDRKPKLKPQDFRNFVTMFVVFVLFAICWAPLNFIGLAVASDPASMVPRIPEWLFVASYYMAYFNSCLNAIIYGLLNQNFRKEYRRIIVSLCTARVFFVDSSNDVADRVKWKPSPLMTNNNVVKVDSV

SMILES	Ki ([1]; read-out: Ki)	Ki ([2]; read-out: Ki)	other results
O=C(NCCCc1cccc2nc(CCCCc3ccccc3)oc12)C1CC1	–	–	Ratio Ki (CHO-K1): 30
CC(=O)NCCc1cccc2ccc(OCCCc3ccccc3)cc12	9 nM	9 nM	Ki ([1]; read-out: pKi (converted)): 25.1 nM; Ki ([2]; read-out: pKi (converted)): 21.4 nM
COc1ccc2cccc(CCNC(=O)C(F)F)c2c1	0.054 nM	0.85 nM	Ratio Ki (CHO): 16
COc1ccc2cccc(CCNC(=O)C(Cl)Cl)c2c1	5 nM	2 nM	–
CC(=O)NCCc1cccc2ccc(OCCCCOc3ccc4cccc(CCNC(C)=O)c4c3)cc12	–	–	Ratio Ki (HEK293): 120
CC(=O)NCCc1cccc2ccc(OCCCOc3ccc4cccc(CCNC(C)=O)c4c3)cc12	112 nM	–	Ki ([2]; read-out: pKi (converted)): 355 nM
CC(=O)NCCc1cccc2ccc(OCCCCc3ccccc3)cc12	9 nM	9 nM	–
O=C(NCCc1cccc2ccc(OCCCCOc3ccc4cccc(CCNC(=O)C(F)F)c4c3)cc12)C(F)F	12 nM	15 nM	–
CC(=O)NCCc1cccc2ccc(OCCCOc3ccccc3)cc12	35 nM	44 nM	–
COc1ccc2cccc(CCNC(=O)C(F)(F)F)c2c1	5 nM	2 nM	–
O=C(NCCc1cccc2ccc(OCCCOc3ccc4cccc(CCNC(=O)C(F)F)c4c3)cc12)C(F)F	1.2 nM	8.1 nM	Ratio Ki (CHO): 7
CCCCCCOc1ccc2c(c1)C(CCNC(C)=O)CCO2 (stereo not drawn)	–	–	Ratio Ki (CHO-K1): 30
O=C(NCCc1c[nH]c2ccc(OCCCOc3ccccc3)cc12)C(F)F	6.2 nM	7.8 nM	Ratio Ki (CHO): 10
